A word on the IC50: it is the concentration that gives 50% inhibition.

For one assay, the target named is human orexin receptor 1 (Homo sapiens (Human), UniProt O43613). Nature of the assay: Orexin antagonist activity, intracellular calcium FLIPR assay, RBL-2H3 cells expressing human orexin receptor 1. Conditions: RBL-2H3 cells stably expressing human orexin receptor 1; orexin-A at approx. 80% maximal response; compound added 15 minutes before; read-out: Human Orexin1R IC50. The assay is classed as cell-based. In general terms: Calcium assays in cells follow changes in intracellular calcium, usually with a dye or a luminescent sensor.

The target of a further assay is human orexin receptor 2 (Homo sapiens (Human), UniProt O43614). Description: Orexin antagonist activity, intracellular calcium FLIPR assay, RBL-2H3 cells expressing human orexin receptor 2. Type of assay: cell-based. Conditions: RBL-2H3 cells stably expressing human orexin receptor 2; orexin-A at approx. 80% maximal response; compound added 15 minutes before; read-out: Human Orexin2R IC50.
Sequence of human orexin receptor 2 (O43614 whole entry): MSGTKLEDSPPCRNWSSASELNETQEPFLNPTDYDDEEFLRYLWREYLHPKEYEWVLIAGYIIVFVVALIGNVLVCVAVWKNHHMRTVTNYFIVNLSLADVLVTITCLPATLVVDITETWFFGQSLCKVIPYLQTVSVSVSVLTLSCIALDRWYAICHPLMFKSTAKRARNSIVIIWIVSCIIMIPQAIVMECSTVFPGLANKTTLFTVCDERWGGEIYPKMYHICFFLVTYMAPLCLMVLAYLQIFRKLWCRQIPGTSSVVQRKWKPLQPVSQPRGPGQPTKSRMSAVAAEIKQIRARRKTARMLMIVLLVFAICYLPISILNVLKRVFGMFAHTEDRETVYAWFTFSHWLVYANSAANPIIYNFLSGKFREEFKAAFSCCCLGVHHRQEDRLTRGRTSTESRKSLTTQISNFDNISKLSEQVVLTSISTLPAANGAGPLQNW

Sequence of human orexin receptor 1 (O43613 whole entry): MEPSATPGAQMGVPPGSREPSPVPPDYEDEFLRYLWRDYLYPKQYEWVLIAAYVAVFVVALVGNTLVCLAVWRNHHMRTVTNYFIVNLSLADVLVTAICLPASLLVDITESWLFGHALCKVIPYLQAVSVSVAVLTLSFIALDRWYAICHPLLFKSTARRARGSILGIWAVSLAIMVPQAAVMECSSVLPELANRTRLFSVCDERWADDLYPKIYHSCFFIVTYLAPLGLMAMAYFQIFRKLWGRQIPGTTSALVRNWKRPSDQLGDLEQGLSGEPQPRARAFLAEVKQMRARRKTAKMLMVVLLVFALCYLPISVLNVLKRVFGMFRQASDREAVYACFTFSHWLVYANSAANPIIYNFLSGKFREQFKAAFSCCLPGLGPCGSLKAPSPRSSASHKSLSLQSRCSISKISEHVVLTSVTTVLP

On to `Cc1ccc(-n2nccn2)c(C(=O)NC2CCCC2Cc2ccc(C(F)(F)F)cn2)c1` (stereo not drawn) [Example 26, 5-Methyl-2-(2H-1,2,3-triazol-2-yl)-N-(2-{[5-(trifluoromethyl)pyridin-2-yl]methyl}cyclopentyl)benzamide], for which the IC50 was 622 nM at human orexin receptor 1 and greater than 10000 nM at human orexin receptor 2.

On to `COc1cccc(OC)c1C(=O)N[C@H]1CCC[C@@H]1Nc1cccc(C(F)(F)F)n1` [Example 27, 2,6-Dimethoxy-N-[(1S,2S)-2-{[6-(trifluoromethyl)pyridin-2-yl]amino}cyclopentyl]benzamide], for which the IC50 on human orexin receptor 1 was found to be 726 nM; at human orexin receptor 2, 2000 nM.

Turning to `O=C(N[C@H]1CCC[C@@H]1Nc1cnc(C(F)(F)F)cn1)c1ncccc1Br` [Example 28, 3-Bromo-N-[(1S,2S)-2-{[5-(trifluoromethyl)pyrazin-2-yl]amino}cyclopentyl]pyridine-2-carboxamide], the half-inhibitory concentration (IC50) on human orexin receptor 1 was 776 nM; on human orexin receptor 2 it was greater than 10000 nM.

Regarding `CCOc1ccc(C)cc1C(=O)N[C@H]1CCC[C@@H]1Nc1cnc(C(F)(F)F)cn1` [Example 29, 2-Ethoxy-5-methyl-N-[(1S,2S)-2-{[5-(trifluoromethyl)pyrazin-2-yl]amino}cyclopentyl]benzamide], the IC50 is 279 nM on human orexin receptor 1 and greater than 10000 nM at human orexin receptor 2.

Turning to `CCOc1ccc(C)nc1C(=O)N[C@H]1CCC[C@@H]1Nc1cnc(C(F)(F)F)cn1` [Example 30, 3-Ethoxy-6-methyl-N-[(1S,2S)-2-{[5-(trifluoromethyl)pyrazin-2-yl]amino}cyclopentyl]pyridine-2-carboxamide], the IC50 is 370 nM on human orexin receptor 1 and greater than 10000 nM at human orexin receptor 2.

`O=C(N[C@H]1CCC[C@@H]1Nc1cnc(C(F)(F)F)cn1)c1ccccc1-n1cccn1` [Example 31, 2-(1H-Pyrazol-1-yl)-N-[(1S,2S)-2-{[5-(trifluoromethyl)pyrazin-2-yl]amino}cyclopentyl]benzamide]: the IC50 at human orexin receptor 1 is 122 nM; on human orexin receptor 2, greater than 10000 nM.

For the compound `O=C(N[C@H]1CCC[C@@H]1Nc1cnc(C(F)(F)F)cn1)c1c(F)cccc1-n1nccn1` [Example 32, 2-Fluoro-6-(2H-1,2,3-triazol-2-yl)-N-[(1S,2S)-2-{[5-(trifluoromethyl)pyrazin-2-yl]amino}cyclopentyl]benzamide], the concentration for half-maximal inhibition (IC50) on human orexin receptor 1 is 32 nM; at human orexin receptor 2, greater than 10000 nM.

In the case of `O=C(N[C@H]1CCC[C@@H]1Nc1cnc(C(F)(F)F)cn1)c1c(F)cccc1F` [Example 33, 2,6-Difluoro-N-[(1S,2S)-2-{[5-(trifluoromethyl)pyrazin-2-yl]amino}cyclopentyl]benzamide], the IC50 on human orexin receptor 1 is 890 nM; at human orexin receptor 2 it was greater than 10000 nM.

With `COc1cccc(OC)c1C(=O)N[C@H]1CCC[C@@H]1Nc1cnc(C(F)(F)F)cn1` [Example 34, 2,6-Dimethoxy-N-[(1S,2S)-2-{[5-(trifluoromethyl)pyrazin-2-yl]amino}cyclopentyl]benzamide], the figures for the IC50 on human orexin receptor 1 and on human orexin receptor 2 were 523 nM and greater than 10000 nM, respectively.

Consider `O=C(N[C@H]1CCC[C@@H]1Nc1cnc(C(F)(F)F)cn1)c1ccccc1-n1ccnn1` [Example 35, 2-(1H-1,2,3-Triazol-1-yl)-N-[(1S,2S)-2-{[5-(trifluoromethyl)pyrazin-2-yl]amino}cyclopentyl]benzamide], for which the IC50 at human orexin receptor 1 was 693 nM; on human orexin receptor 2, greater than 10000 nM.

For `O=C(N[C@H]1CCC[C@@H]1Nc1cnc(C(F)(F)F)cn1)c1cc(F)ccc1-n1nccn1` [Example 36, 5-Fluoro-2-(2H-1,2,3-triazol-2-yl)-N-[(1S,2S)-2-{[5-(trifluoromethyl)pyrazin-2-yl]amino}cyclopentyl]benzamide], the IC50 at human orexin receptor 1 is 207 nM; on human orexin receptor 2, greater than 10000 nM.

Consider `COc1ccc(C)cc1C(=O)N[C@H]1CCC[C@@H]1Nc1cnc(C(F)(F)F)cn1` [Example 37, 2-Methoxy-5-methyl-N-[(1S,2S)-2-{[5-(trifluoromethyl)pyrazin-2-yl]amino}cyclopentyl]benzamide], for which the IC50 on human orexin receptor 1 was 340 nM; on human orexin receptor 2 it was greater than 10000 nM.

These data come from patent US9156829B2, “Cycloalkyl and heterocycloalkyl compounds as orexin receptor antagonists” (Takeda Pharmaceutical Company Limited, priority 2014, dated 2015).
